Usually IC50 stands for the concentration at which inhibition is half-maximal. In general, inhibition refers to the change of the read-out against control, counted positive when it falls. As usually defined, the MTD is the highest dose tested that stayed within the study's limit of toxicity. The term Ki denotes the equilibrium dissociation constant of an inhibitor or competing ligand from its target.

The target of data set [1] is T1, Replicase polyprotein 1ab (Severe acute respiratory syndrome coronavirus 2, UniProt P0DTD1). Kind of data set: Inhibition of SARS-CoV-2 PLpro.
For data set [2], the target named is Replicase polyprotein 1ab (Severe acute respiratory syndrome coronavirus 2) (UniProt P0DTD1). Kind of data set: Inhibition of SARS-CoV-2 PLpro expressed in Escherichia coli BL21(DE3) using CBZ-RLRGG-AMC as substrate at 5 uM incubated for 30 mins followed by substrate addition by FRET assay.
Data set [3] has the same target. Kind of data set: Inhibition of SARS-CoV-2 MPro expressed in Escherichia coli BL21(DE3) using Dabcyl-KLSAVLQSGERKM-Edans as substrate assessed as inactivation constant measured for 30 mins by fluorimetry based microplate reader analysis.
Data set [4] in a line: Solubility of compound in saline at higher dose. Conditions: buffer. It counts as physicochemical.
The target in data set [5] is T2, Procathepsin L (Homo sapiens, UniProt P07711). Kind of data set: Inhibition of human Cathepsin L using Z-Leu-Arg-AMC as substrate incubated for 30 mins followed by substrate addition by fluorescence based analysis.
Target sequence in this assay (P07711 whole entry): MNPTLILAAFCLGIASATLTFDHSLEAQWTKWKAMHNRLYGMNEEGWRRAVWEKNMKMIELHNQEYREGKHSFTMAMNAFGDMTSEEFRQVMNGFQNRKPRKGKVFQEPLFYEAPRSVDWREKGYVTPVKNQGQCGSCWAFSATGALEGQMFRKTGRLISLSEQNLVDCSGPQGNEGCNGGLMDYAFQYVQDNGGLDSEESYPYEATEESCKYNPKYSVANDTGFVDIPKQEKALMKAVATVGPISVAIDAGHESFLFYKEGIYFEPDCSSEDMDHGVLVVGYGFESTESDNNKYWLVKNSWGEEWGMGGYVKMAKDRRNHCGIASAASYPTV
A short description of data set [6]: Acute toxicity in overnight fasted Kunming mouse assessed as animal death at 1050 mg/kg, iv measured after 15 days. Type of data set: organism-based. The following applies: in vivo, 360 h, time 15 day.
The nature of data set [7]: Acute toxicity in overnight fasted Kunming mouse assessed as reduction in body weight at 1049 to 4000 mg/kg, iv measured after 15 days. It counts as organism-based. Conditions: in vivo, 360 h, dose 1049-4000 mg/kg, time 15 day.
For data set [8], the target named is Replicase polyprotein 1ab (Severe acute respiratory syndrome coronavirus 2) (UniProt P0DTD1). In words: Covalent binding affinity to Cys145 residue of SARS-CoV-2 MPro expressed in Escherichia coli BL21(DE3) assessed as trypsin digestion mediated mass shift by mass spectrometry analysis.
Data set [9] in a line: Drug metabolism in normal saline assessed as conversion of closed form to open form by measuring rate constant at equilibrium at 2 mg/ml measured at 5 hrs by RP-HPLC analysis. Type of data set: ADME. Conditions: buffer.
Data set [10] in a line: Acute toxicity in Sprague-Dawley rat assessed as cellular swelling in hepatocytes at 300 mg/kg, po administered via gavage for 4 weeks. It counts as organism-based. Conditions: in vivo, 672 h.
Data set [11] can be described thus: Acute toxicity in overnight fasted Kunming mouse assessed as signs of abnormality at 1310 mg/kg, iv measured after 15 days. It counts as organism-based. Conditions: in vivo, 360 h, time 15 day.
Data set [12] addresses Replicase polyprotein 1ab (Severe acute respiratory syndrome coronavirus 2) (UniProt P0DTD1). In words: Binding affinity to SARS-CoV-2 MPro expressed in Escherichia coli BL21(DE3) assessed as mass shift at 15 uM incubated for 4 hrs by mass spectrometry analysis.
For data set [13], the target named is T1, Replicase polyprotein 1ab. Kind of data set: Inhibition of SARS-CoV-2 MPro expressed in Escherichia coli BL21(DE3) using Dabcyl-KLSAVLQSGERKM-Edans as substrate incubated for 30 mins followed by substrate addition by FRET assay.
In another data set the test system is Vero C1008. Kind of data set: Cytotoxicity against African green monkey Vero E6 cells infected with SARS-CoV-2 assessed as reduction in cell viability at 15 uM measured after 48 hrs by CCK-8 assay. It counts as toxicity, cell-based. The following applies: chlorocebus sabaeus, vero c1008, 48 h.
In data set [14] the target is T2, Procathepsin L. In words: Irreversible inhibition of human Cathepsin L using Z-Leu-Arg-AMC as substrate at 300 nM incubated for 5 hrs followed by 100 fold dilution and incubated for 5 min and further incubated with substrate by fluorescence based analysis. Conditions: time 305.0 min.
Target sequence in this assay (P07711 114-333 limits assumed): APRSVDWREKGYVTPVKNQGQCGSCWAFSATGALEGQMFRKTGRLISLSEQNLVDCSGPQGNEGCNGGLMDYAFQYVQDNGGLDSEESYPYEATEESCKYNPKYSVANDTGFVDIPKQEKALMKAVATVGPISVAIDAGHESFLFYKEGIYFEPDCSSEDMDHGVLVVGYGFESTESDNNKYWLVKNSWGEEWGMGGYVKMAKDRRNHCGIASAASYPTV
Data set [15] is described as follows: Toxicity in overnight fasted Kunming mouse assessed as animal death at 400 mg/kg, iv measured after 15 days. Conditions: in vivo, 360 h, time 15 day. It counts as organism-based.
Data set [16] is described as follows: Acute toxicity in iv dosed overnight fasted Kunming mouse assessed as minimum lethal dose measured after 15 days. Type of data set: organism-based. Conditions: in vivo, 360 h, time 15 day.
For data set [17], the system named is SARS-CoV-2. In words: Antiviral activity against SARS-CoV-2 infected in Vero E6 cells assessed as reduction in viral nucleoprotein levels at 5 uM pretreated with Vero E6 cells for 1 hr followed by viral infection and further incubated for 1 followed by compound washout and measured after 48 hrs by Hoechst 33258 staining based fluorescence microscopy analysis. It counts as functional, organism-based. Conditions: Severe acute respiratory syndrome coronavirus 2, time 2.0 hrs.

The nature of data set [18]: Acute toxicity in iv dosed overnight fasted Kunming mouse assessed as maximum tolerated dose measured after 15 days. Type of data set: organism-based. Conditions: in vivo, time 15 day.
Data set [19] addresses Replicase polyprotein 1ab (Severe acute respiratory syndrome coronavirus 2) (UniProt P0DTD1). Kind of data set: Inhibition of SARS-CoV-2 PLpro expressed in Escherichia coli BL21(DE3) using CBZ-RLRGG-AMC as substrate assessed as inactivation constant measured for 30 mins by fluorimetry based microplate reader analysis.
For data set [20] the target is unchanged. Kind of data set: Covalent binding affinity to Cys111 residue of SARS-CoV-2 PLpro expressed in Escherichia coli BL21(DE3) assessed as mass shift at 3 to 15 uM incubated for 4 hrs followed by trypsin digestion by mass spectrometry analysis. Conditions: dose 3-15 µM.
For data set [21], the target named is T1, Replicase polyprotein 1ab. In words: Inhibition of SARS-CoV-2 PLpro expressed in Escherichia coli BL21(DE3) using CBZ-RLRGG-AMC as substrate incubated for 30 mins followed by substrate addition by FRET assay.
Data set [22] concerns the target Replicase polyprotein 1ab (Severe acute respiratory syndrome coronavirus 2) (UniProt P0DTD1). Kind of data set: Inhibition of SARS-CoV-2 MPro expressed in Escherichia coli BL21(DE3) using Dabcyl-KLSAVLQSGERKM-Edans as substrate at 5 uM incubated for 30 mins followed by substrate addition by FRET assay.
Data set [23] shares this target. In words: Inhibition of SARS-CoV-2 PLpro expressed in Escherichia coli BL21(DE3) using CBZ-RLRGG-AMC as substrate assessed as Kinact/Ki measured for 30 mins by fluorimetry based microplate reader analysis.
Data set [24] in a line: Acute toxicity in Sprague-Dawley rat assessed as effect on food consumption at upto 300 mg/kg, po administered via gavage for 4 weeks followed by recovery for 4 weeks. Conditions: in vivo, 1344 h, time 8 weeks. Type of data set: organism-based.
The target in data set [25] is Serine/threonine-protein kinase PAK 2 (Homo sapiens) (UniProt Q13177). In words: Inhibition of human PAK2 at 1 uM by DiscoverX KINOMEscan assay relative to control.
The nature of data set [26]: Acute toxicity in Sprague-Dawley rat assessed as reduction in body weight at upto 300 mg/kg, po administered via gavage for 4 weeks followed by recovery for 4 weeks. Type of data set: organism-based. Conditions: in vivo, 1344 h, time 8 weeks.
Data set [27] is described as follows: Acute toxicity in overnight fasted Kunming mouse assessed as toxic signs at 1050 mg/kg, iv measured after 15 days. Type of data set: organism-based. The following applies: in vivo, 360 h, time 15 day.
The target of data set [28] is T3, Cathepsin B (Homo sapiens, UniProt P07858). Kind of data set: Reversible inhibition of His-tagged recombinant human Cathepsin B expressed in HEK293 cells using Z-Leu-Arg-AMC as substrate at 120 nM incubated for 2.5 hrs followed by 100 fold dilution and incubated for 5 min and further incubated with substrate by fluorescence based analysis. The following applies: time 155.0 min.

For data set [29], the target named is T1, Replicase polyprotein 1ab. In words: Inhibition of SARS-CoV-2 PLpro expressed in Escherichia coli BL21(DE3) using CBZ-RLRGG-AMC as substrate assessed as inhibition constant measured for 30 mins by fluorimetry based microplate reader analysis.
Data set [30] deals with Replicase polyprotein 1ab (Severe acute respiratory syndrome coronavirus 2) (UniProt P0DTD1). Kind of data set: Binding affinity to SARS-CoV-2 PLpro expressed in Escherichia coli BL21(DE3) assessed as mass shift at 30 uM incubated for 4 hrs by mass spectrometry analysis.
For data set [31] the target is unchanged. In words: Inhibition of SARS-CoV-2 MPro expressed in Escherichia coli BL21(DE3) using Dabcyl-KLSAVLQSGERKM-Edans as substrate assessed as Kinact/Ki measured for 30 mins by fluorimetry based microplate reader analysis.
A short description of data set [32]: Acute toxicity in Sprague-Dawley rat assessed as cellular swelling in hepatocytes at 300 mg/kg, po administered via gavage for 4 weeks followed by recovery for 4 weeks. It counts as organism-based. The following applies: in vivo, 1344 h, time 8 weeks.
For data set [33], the system named is SARS-CoV-2. In words: Antiviral activity against SARS-CoV-2 infected in Vero E6 cells assessed as reduction in viral nucleoprotein expression measured after 48 hrs by qRT-PCR analysis. The following applies: Severe acute respiratory syndrome coronavirus 2, Vero C1008, 48 h. It counts as functional, organism-based. On the technique in general: Quantitative PCR measures a nucleic acid by following its amplification.

In data set [34] the target is T3, Cathepsin B. In words: Inhibition of His-tagged recombinant human Cathepsin B expressed in HEK293 cells using Z-Leu-Arg-AMC as substrate incubated for 30 mins followed by substrate addition by fluorescence based analysis.
Data set [35] has as its system SARS-CoV-2. In words: Antiviral activity against SARS-CoV-2 infected in Vero E6 cells assessed as reduction in viral RdRP RNA levels at 15 uM measured after 48 hrs by qRT-PCR analysis. It counts as functional, Severe acute respiratory syndrome coronavirus 2. Details: scale not given: the % may be the effect or the level left.
For data set [36], the target named is Serine/threonine-protein kinase pim-1 (Homo sapiens) (UniProt P11309). In words: Inhibition of human PIM1 at 1 uM by DiscoverX KINOMEscan assay relative to control.
Data set [37] addresses T1, Replicase polyprotein 1ab. In words: Inhibition of SARS-CoV-2 MPro expressed in Escherichia coli BL21(DE3) using Dabcyl-KLSAVLQSGERKM-Edans as substrate assessed as inhibition constant measured for 30 mins by fluorimetry based microplate reader analysis.
For data set [38], the target named is T1, Replicase polyprotein 1ab. Kind of data set: Inhibition of SARS-CoV2 main protease.

Molecules are shown by their SMILES. Calls of active or inactive are those of the source. The rule behind the calls is not given here.

Chain of Serine/threonine-protein kinase PAK 2 (Homo sapiens) (Q13177 whole entry): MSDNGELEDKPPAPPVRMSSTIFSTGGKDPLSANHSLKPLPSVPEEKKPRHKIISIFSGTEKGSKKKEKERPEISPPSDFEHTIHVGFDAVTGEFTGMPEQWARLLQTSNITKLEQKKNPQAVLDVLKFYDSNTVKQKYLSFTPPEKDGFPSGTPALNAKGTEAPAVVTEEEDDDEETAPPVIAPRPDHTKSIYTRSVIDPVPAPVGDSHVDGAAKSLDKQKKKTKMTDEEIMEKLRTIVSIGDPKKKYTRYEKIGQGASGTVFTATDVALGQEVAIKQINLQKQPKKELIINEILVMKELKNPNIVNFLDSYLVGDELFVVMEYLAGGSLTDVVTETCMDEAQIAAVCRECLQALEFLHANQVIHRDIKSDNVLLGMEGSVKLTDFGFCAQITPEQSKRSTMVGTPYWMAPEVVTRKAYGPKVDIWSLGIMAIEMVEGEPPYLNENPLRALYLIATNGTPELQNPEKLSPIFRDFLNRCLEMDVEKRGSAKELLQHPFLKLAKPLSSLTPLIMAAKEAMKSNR
Chain of Serine/threonine-protein kinase pim-1 (Homo sapiens) (P11309 whole entry, looked up): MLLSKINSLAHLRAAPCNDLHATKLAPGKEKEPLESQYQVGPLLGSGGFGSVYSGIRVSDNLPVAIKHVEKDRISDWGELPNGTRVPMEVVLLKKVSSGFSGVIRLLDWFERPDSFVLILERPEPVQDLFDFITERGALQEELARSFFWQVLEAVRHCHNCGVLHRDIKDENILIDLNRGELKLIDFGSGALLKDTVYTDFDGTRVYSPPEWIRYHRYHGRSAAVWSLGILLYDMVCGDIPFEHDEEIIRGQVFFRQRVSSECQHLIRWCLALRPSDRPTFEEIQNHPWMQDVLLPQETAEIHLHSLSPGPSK

The compound `CC1=NC2C(=O)C(Nc3ccc(C)cc3)=CC(=O)C2S1` (stereo unspecified) gave a concentration for half-maximal inhibition (IC50) in data set [1] of 0.39 µM.

On to `CNS(=O)(=O)c1cccc2c1C(=O)C(Nc1ccccc1)=CC2=O`, for which the inhibition entry in [2] was “Active”.

With `Cl.O=C1C=C(Nc2ccccc2N2CCNCC2)C2=NS(=O)(=O)c3cccc1c32`, the Kinact in data set [3] came to 0.0048 s⁻¹; in [19], 0.0081 s⁻¹. In addition, the solubility entry in data set [4] is “Insoluble”. For the same compound, the half-maximal inhibitory concentration (IC50) turned out to be 2.2 µM against Procathepsin L [5]; 0.12 µM in data set [13]; 0.99 µM in data set [21]; 3.9 µM with SARS-CoV-2 [33]; 8.8 µM at Cathepsin B [34]. In addition, the Activity result was “Non-Toxic” in data set [6]; “Non-Toxic” in data set [7]; “Toxic” in data set [10]; “Non-Toxic” in [11]; 392 Da in data set [12]; “Non-Toxic” with Vero C1008. Also, the Activity result was “Non-Toxic” in [15]; “Non-Toxic” in [24]; “Non-Toxic” in data set [26]; “Non-Toxic” in [27]; 410 Da in [30]; “Non-Toxic” in [32]. Besides, the Activity in the data set with SARS-CoV-2 [35] is reported as 99.9%. Moreover, the outcome (in data set [8]; in the data set on SARS-CoV-2 [17]; in [20]) was Active. Besides, the Ke in [9] was 0.012 min⁻¹. The inhibition result (at Procathepsin L [14]; in data set [22]; at Cathepsin B [28]; in [2]) was “Active” each time. For the same compound, in data set [16], the MLC was found to be 1300 mg/kg. The MTD at 360 h in [18] was determined as 1000 mg/kg. Also, the values for the Ratio in data set [23] and in data set [31] were 500 M⁻¹ s⁻¹ and 710 M⁻¹ s⁻¹, respectively. Also, the inhibition in data set [25] is 10%; in data set [36], 35%. Besides, the Ki amounted to 16 µM in [29] and 7.1 µM in data set [37].

`COC(=O)/C=C/C(=O)NNC(=O)/C=C/c1ccccc1C(=O)N[C@H](C)c1cccc2ccccc12`: in [1], the IC50 stood at 0.094 µM.

Regarding `CC(C)C[C@H](NC(=O)[C@@H](NC(=O)OCc1ccccc1)C(C)C)C(=O)N[C@@H](C[C@@H]1CCNC1=O)C(=O)c1nc2ccccc2s1`, the Ki in [38] was 0.0145 µM.

Source of the values: ChEMBL document CHEMBL5150074, “Structure-Based Design of a Dual-Targeted Covalent Inhibitor Against Papain-like and Main Proteases of SARS-CoV-2” (J Med Chem, 2022).
